This note sets out measurements from article PMC8443589, “Modelling human liver fibrosis in the context of non-alcoholic steatohepatitis using a microphysiological system” (Communications Biology, 2021).

Values joined by “and” are separate entries in the source; they are usually repeats but may differ in a detail not shown here. Equal values may be shown once.

For this assay, the system named is liver MPS NASH model (PHH, KC and HSC co-cultures, high fat). The assay is described as follows: Quantitative confocal imaging of collagen type 1 and alpha SMA in liver MPS NASH model dosed with OCA or ELF. In kind it is cell-based, human. The note with it: for Collagen type 1 fluroscent marker intensity: per MPS scaffold; for reduction of collagen-1 deposition / reduction of α-SMA expression: fat only NASH model, 10 days; for reduction of α-SMA expression: concentration-dependent. The protocol: Fig. 3 Obeticholic acid and Elafibranor both modulate inflammatory and fibrosis phenotype in liver MPS NASH model and phenotype can additionally be reversed with dietary changes. PHH, KC and HSC co-cultures were cultured in the MPS platform under high fat conditions and dosed with varying concentrations of Obeticholic acid (OCA) and Elafibranor (ELF) QD or vehicle control (control) for 10 days, following an initial 4-day pre-culture phase. a The secreted cytokine profile from liver microtissues was compared by Luminex to determine the effects of each compound on the inflammatory profile of the liver with samples analysed at day 8 and 14 of the culture. Data were normalised by Z-transformation to allow comparison of all analytes and presented as a heatmap. b The expression of fibrosis-associated genes was analysed in total RNA from control, OCA and ELF treated liver microtissues (highest concentration for each compound) using Human Fibrosis RT2 Profiler PCR Arrays. Gene expression changes are expressed as a fold change over control. c Liver microtissues were stained for collagen-type I, α-SMA, nuclei (DAPI - blue), phalloidin (green) and imaged by confocal microscopy. Representative images are shown and scale bars 200 µm. d Staining of microtissue was quantified by measuring total fluorescence intensity throughout individual microtissues, each data point represents an average of all the microtissues imaged within an MPS scaffold (min 8, max 20 microtissues). e PHH, KC and HSC co-cultures were cultured in the MPS platform under high fat or lean conditions for 30 days. Cultures either remained in the same type of media throughout or were switched at day 15 from fat media to lean media (Fat -> Lean). Cell culture medium samples were analysed for the presence of IL-6, f MCP-1, g TIMP-1, which were measured by ELISA. h Microtissues were stained with Oil-Red O to determine fat loading during culture period, total stain was quantified by absorbance at 510 nm. All datapoints shown, either as box-whisker plots highlighting mean and min-max or with error bars highlighting means ± SD. All data from a minimum of three independent cultures; statistical comparisons made to control samples unless other comparison shown.
To visualise fibrosis proteins in the liver microtissues, scaffolds were fixed for 15 min in 4% paraformaldehyde following culture in the MPS platform. They were permeabilized with 0.1% Triton-X and blocked with 2% BSA before staining overnight at 4 °C with antibodies against alpha SMA (Abcam, UK - ab7817) and collagen 1 (Rockland, USA—600 401 103 0.5). Scaffolds were then stained with fluorescently conjugated secondary antibodies (Alexa-Fluor 555 goat anti-rabbit #A21429; Alexa-Fluor 647 donkey anti-rabbit #A31573; Alexa-Fluor 555 goat anti-mouse #A21424; Alexa-Fluor 647 goat anti-mouse #A21235 (Thermofisher, UK) along with Phalloidin 488 (Thermofisher, UK) and Hoechst 33342 (Invitrogen) for 1.5 h at room temperature. Scaffolds were washed three times with PBS and mounted onto glass microscope slides with anti-fade mounting medium. Confocal fluorescent images of the stained scaffolds were captured using a Cell Voyager 7000 (CV700, Yokogawa Inc.) automated confocal microscope. Image acquisition was controlled using the SearchFirst functionality of the Wako Software suite (Fujifilm Wako Automation). A workflow was designed to automatically locate and acquire images of each scaffold in a consistent and unbiased manner (Supp. Fig. 1). The workflow consisted of a first round of acquisition where the entire slide is imaged at low (4×) magnification capturing the Hoechst channel only. Images were automatically stitched together using a MATLAB script and eight regions of interest (ROI) were identified on each scaffold (same array of ROI per scaffold). XY coordinates were fed back to the microscope which subsequently imaged each ROI with full Z stacks obtained at ×10 magnification, 120 µm stack with a 5 µm slice interval. […]

With `CSc1ccc(C(=O)/C=C/c2cc(C)c(OC(C)(C)C(=O)O)c(C)c2)cc1` [Elafibranor], the “reduction of collagen-1 deposition” value is on record as “up to 35%” and the “reduction of α-SMA expression” value is given as “up to 50%”. The “Collagen type 1 fluroscent marker intensity” value (ELF 13 uM QD 10 days, listed as ELF) is 1659.63 and 1182.93 and 1579.82 and 1137.61 and 1507.1.

For `CC[C@H]1[C@@H](O)[C@@H]2[C@H](CC[C@]3(C)[C@@H]([C@H](C)CCC(=O)O)CC[C@@H]23)[C@@]2(C)CC[C@@H](O)C[C@@H]12` [Obeticholic acid], the “reduction of collagen-1 deposition” value was “up to 35%” and the “reduction of α-SMA expression” value is on record as “up to 50%”. The “Collagen type 1 fluroscent marker intensity” value (OCA 0.25 uM QD 10 days, listed as OCA) is 2993.61 and 2644.36 and 2590.02 and 1579.53. For the same molecule, the “Collagen type 1 fluroscent marker intensity” value (OCA 5 uM QD 10 days, listed as OCA) was 1471.67 and 1379.09 and 1471.56 and 1817.03 and 1176.35 and 1231.08.
